# Reference: ChEMBL document CHEMBL3734703, “(E)-2-Cyano-3-(substituted phenyl)acrylamide analogs as potent inhibitors of tyrosinase: A linear β-phenyl-α,β-unsaturated carbonyl scaffold” (Bioorg Med Chem, 2015)
# Active and inactive are the calls of the source. No cut-off for these calls is given here.
# How the values were obtained:
# [1] = molecular target: T1, Tyrosinase (Agaricus bisporus) (UniProt O42713); assay: Competitive inhibition of mushroom tyrosinase using L-tyrosine as substrate assessed as dopachrome production after 30 mins by Lineweaver-Burk plot analysis
# T1 sequence (whole entry): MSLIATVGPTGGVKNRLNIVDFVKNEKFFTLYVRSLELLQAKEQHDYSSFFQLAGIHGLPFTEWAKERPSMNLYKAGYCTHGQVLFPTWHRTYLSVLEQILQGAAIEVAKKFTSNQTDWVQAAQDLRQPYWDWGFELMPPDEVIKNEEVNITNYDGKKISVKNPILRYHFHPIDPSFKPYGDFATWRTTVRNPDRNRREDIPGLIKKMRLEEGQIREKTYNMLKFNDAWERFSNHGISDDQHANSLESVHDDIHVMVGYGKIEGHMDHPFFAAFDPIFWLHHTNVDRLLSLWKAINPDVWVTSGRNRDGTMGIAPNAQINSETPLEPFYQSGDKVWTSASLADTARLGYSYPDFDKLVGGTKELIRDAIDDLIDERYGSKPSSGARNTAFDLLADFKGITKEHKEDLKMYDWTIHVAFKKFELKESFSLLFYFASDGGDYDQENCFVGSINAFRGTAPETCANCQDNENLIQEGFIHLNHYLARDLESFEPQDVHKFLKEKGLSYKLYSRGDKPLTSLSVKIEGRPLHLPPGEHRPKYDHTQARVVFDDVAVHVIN
# [2] = Cytotoxicity against mouse B16F10 cells assessed as cell viability at 5 uM after 24 hrs by MTT assay relative to control; type: cell-based, B16-F10; conditions: read-out: Activity
# [3] = Cytotoxicity against mouse B16F10 cells assessed as cell viability at 10 uM after 24 hrs by MTT assay relative to control; type: cell-based, B16-F10; conditions: read-out: Activity
# [4] = Cytotoxicity against mouse B16F10 cells assessed as cell viability at 25 uM after 24 hrs by MTT assay relative to control; type: cell-based, B16-F10; conditions: read-out: Activity
# [5] = test system: B16-F10; assay: Inhibition of alpha-MSH-mediated melanin biosynthesis in mouse B16F10 cells after 24 hrs; type: functional, cell-based
# [6] = molecular target: T2, Tyrosinase (Mus musculus) (UniProt P11344); assay: Inhibition of tyrosinase in alpha-MSH-stimulated mouse B16F10 cells assessed as L-DOPA oxidation after 24 hrs; type: cell-based; conditions: B16-F10
# T2 sequence (whole entry): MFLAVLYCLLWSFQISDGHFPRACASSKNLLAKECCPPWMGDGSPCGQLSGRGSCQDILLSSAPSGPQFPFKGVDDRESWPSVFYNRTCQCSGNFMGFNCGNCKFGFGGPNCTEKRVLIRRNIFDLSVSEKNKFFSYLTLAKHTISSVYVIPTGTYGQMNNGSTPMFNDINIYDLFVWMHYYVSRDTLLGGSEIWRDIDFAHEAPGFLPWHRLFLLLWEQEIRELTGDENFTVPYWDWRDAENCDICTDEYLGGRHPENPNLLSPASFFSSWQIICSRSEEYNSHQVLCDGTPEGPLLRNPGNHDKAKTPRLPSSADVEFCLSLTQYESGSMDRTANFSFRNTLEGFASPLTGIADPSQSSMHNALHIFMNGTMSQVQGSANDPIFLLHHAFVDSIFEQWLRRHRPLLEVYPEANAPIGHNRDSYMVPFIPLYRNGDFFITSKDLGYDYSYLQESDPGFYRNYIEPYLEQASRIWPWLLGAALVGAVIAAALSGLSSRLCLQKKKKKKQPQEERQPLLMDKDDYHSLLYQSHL
# [7] = test system: B16-F10; assay: Inhibition of alpha-MSH-mediated melanin biosynthesis in mouse B16F10 cells at 25 uM after 24 hrs; type: functional, cell-based
Compound,inhibition [1],"viability at 24 h, 5 µM [2] [%]","viability at 24 h, 10 µM [3] [%]","viability at 24 h, 25 µM [4] [%]",inhibition [5],inhibition [6],inhibition [7]
N#C/C(=C\c1ccc(O)c(O)c1)C(N)=O,Dose-dependent effect,99.6,98.6,96.9,Dose-dependent effect,Dose-dependent effect,
O=c1cc(CO)occ1O,,,,,,,Active
